In patent US20130116282A1, “BUCKWHEAT EXTRACT ENRICHED IN D-FAGOMINE” (BIOGLANE, S.L.N.E., priority 2010, published 2013):

Experiments:
alpha-glycosidase = settings: Kato et al. 1997; cited from earlier work
Sprague-Dawley rats = experiment: Post-prandial blood glucose test after sucrose administration; assay type: in vivo, rat; settings: sucrose 2 g/kg, 1.0 mg/kg D-fagomine
Method: The effect on postprandial blood glucose of both D-fagomine enriched extract from buckwheat and D-fagomine obtained chemoenzimatically following the procedure described in WO2008025826A1 was evaluated. Adult male Sprague-Dawley rats of 200-220 g body weight (Janvier, Le Genest-St-Isle, France) were housed in cages (n=2/cage) under controlled conditions of stable humidity (40-77%), and temperature (23° C.) with a 12-hour light/dark cycle. The rats were fed a standard diet (Panlab A04, Panlab, Barcelona, Spain) and given water ad libitum. To minimize circadian rhythm effects, rat manipulations were carried out in the morning. Handling and sacrificing of the animals were in full accordance with the European Union guidelines for the care and management of laboratory animals and the pertinent permission was obtained from the CSIC Subcommittee of Bioethical Issues. The authors further attest that all efforts were made to minimize the number of animals used and their suffering. The glucose test was performed after a 12 h food deprivation period. A solution of sucrose (2 g/kg body weight) together with the appropriate amount of the compound being tested was administered to the rats. […] Blood glucose concentration was measured by the enzyme electrode method using Elite blood glucose test strips and a blood glucose meter Ascensia ELITE XL both from Bayer Consumer Care AG (Basel, Switzerland). […]

Escherichia coli = experiment: Adhesion of Escherichia coli to mucus (pig intestinal mucosa); assay type: cell-based; settings: 10 mg/L D-fagomine
Method: Adhesion to Mucus. Protocol
The strains of Escherichia coli used were obtained from the Bacterial Strain Collection of the Faculty of Veterinary Science at the Universitat Autònoma de Barcelona. Overnight, cultures of the bacterial strain were inoculated into flasks containing Luria medium (Liofilchem, Roseto degli Abruzzi, Italy) (3 mL) to facilitate the production of fimbriae. The strains were incubated at 37° C. for 24 h. Then, colonies were grown on Luria medium Agar plates and after 24 h of incubation, several dilutions were prepared in PBS (phosphate buffered saline, Sigma Aldrich, St Louis, Mo., USA) for each strain, down to a concentration of 1×10^7 CFU mL^−1.
The mucosa was obtained from intestinal segments of pigs, just after they were killed at a local slaughterhouse, and kept frozen until use. The mucosa preparation (1 mL) was defrosted, centrifuged and mixed with PBS (99 mL). Prior to each test, the concentration of mucine in the suspension was calculated by the Bradford method. Multiwell plates (Nunc®, Roskilde, Denmark) were treated with the mucosa suspension (2.5 mL) overnight at 4° C. […] Finally, the colony forming units from both the supernatant and mucosa were counted under an optical microscope after cultivating both fractions overnight.

[1] = tested on: Streptozotocin-diabetic mice; settings: Nojima et al. 1998; cited from earlier work
lactase = settings: Kato et al. 1997; cited from earlier work

**Q.** With `OC[C@H]1NCC[C@@H](O)[C@@H]1O` [D-fagomine WO2008025826A1, (2R,3R,4R)-2-(hydroxymethyl)piperidine-3,4-diol] as the molecule, how does the alpha-glycosidase inhibition (alpha-glycosidase) read?
**A.** Its alpha-glycosidase inhibition is “weak inhibitor”.

**Q.** And the “Increase in plasma glucose after sucrose administration” value (Sprague-Dawley rats)?
**A.** Its value is “lowered”.

**Q.** And the “Agglutination of the microorganisms” value (Escherichia coli)?
**A.** Its value is “agglutinated”.

**Q.** And the “Bacterial adhesion to the mucus” value (Escherichia coli)?
**A.** Its value is “not detected”.

**Q.** And the antihyperglycemic effect [1]?
**A.** The antihyperglycemic effect was “antihyperglycemic effect”.

**Q.** What about the lactase inhibition (lactase) of the same molecule?
**A.** Its lactase inhibition is “weak inhibitor”.
